Assay [1] has as its target T1, Protein cereblon/Focal adhesion kinase 1 (Homo sapiens) (UniProt Q05397+Q96SW2). In words: Protac activity at CRBN/FAK in human PA-TU-8988T cells assessed as induction of FAK degradation at 10 nM incubated for 4 hrs by immunoblot assay relative to control. In kind it is cell-based. In general terms: A western blot detects proteins with antibodies after separation by electrophoresis.

The target in assay [2] is T1, Protein cereblon/Focal adhesion kinase 1 (Homo sapiens). In words: Protac activity at CRBN/FAK in human PA-TU-8988T cells assessed as induction of FAK degradation at 100 nM incubated for 4 hrs by immunoblot assay relative to control. In kind it is cell-based.

Molecules are shown by their SMILES.

T1 sequence (Q05397 2-1052 limits assumed): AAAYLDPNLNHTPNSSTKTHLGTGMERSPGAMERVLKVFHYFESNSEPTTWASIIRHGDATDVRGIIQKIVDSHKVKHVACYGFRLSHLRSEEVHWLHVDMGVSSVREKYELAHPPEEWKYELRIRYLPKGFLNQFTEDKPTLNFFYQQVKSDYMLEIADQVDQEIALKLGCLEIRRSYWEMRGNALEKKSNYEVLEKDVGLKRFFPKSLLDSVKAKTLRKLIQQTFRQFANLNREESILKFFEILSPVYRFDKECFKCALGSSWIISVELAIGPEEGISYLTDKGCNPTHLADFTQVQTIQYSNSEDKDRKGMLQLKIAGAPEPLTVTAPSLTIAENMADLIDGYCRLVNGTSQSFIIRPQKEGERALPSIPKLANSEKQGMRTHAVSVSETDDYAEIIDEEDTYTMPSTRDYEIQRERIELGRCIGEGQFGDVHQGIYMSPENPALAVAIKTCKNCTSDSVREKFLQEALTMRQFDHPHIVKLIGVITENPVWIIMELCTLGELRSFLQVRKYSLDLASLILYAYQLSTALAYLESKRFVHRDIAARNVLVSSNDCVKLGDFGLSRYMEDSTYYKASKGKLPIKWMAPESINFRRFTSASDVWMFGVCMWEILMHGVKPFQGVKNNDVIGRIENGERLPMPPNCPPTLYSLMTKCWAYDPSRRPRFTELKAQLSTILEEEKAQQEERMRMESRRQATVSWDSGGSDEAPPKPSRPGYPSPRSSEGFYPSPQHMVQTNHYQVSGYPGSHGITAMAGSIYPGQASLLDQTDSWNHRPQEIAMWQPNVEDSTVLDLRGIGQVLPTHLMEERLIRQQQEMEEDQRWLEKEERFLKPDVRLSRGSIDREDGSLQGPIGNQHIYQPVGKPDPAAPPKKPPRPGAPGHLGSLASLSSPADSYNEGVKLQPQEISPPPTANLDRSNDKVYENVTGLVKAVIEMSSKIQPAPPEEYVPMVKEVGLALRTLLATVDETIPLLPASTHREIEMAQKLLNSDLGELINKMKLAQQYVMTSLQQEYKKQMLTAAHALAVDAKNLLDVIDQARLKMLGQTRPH
T1 sequence (Q96SW2 whole entry partner): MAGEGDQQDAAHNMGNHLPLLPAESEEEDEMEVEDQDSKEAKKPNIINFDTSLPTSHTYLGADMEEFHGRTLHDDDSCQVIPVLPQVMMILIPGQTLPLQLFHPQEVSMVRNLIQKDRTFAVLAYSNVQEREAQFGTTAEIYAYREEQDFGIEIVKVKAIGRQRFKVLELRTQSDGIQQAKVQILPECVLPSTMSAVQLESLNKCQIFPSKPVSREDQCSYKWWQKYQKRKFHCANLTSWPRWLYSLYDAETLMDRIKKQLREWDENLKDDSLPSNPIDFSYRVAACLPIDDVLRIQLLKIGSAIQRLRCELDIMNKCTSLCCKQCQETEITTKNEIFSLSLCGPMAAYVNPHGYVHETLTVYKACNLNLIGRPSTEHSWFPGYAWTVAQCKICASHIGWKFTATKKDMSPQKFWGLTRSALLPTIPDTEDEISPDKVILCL

As to `CNC(=O)c1ccccc1Nc1cc(Nc2ccc(N3CCN(CCOCCOCCNC(=O)CNc4cccc5c4C(=O)N(C4CCC(=O)NC4=O)C5=O)CC3)cc2OC)ncc1C(F)(F)F` (configuration not stated), the Activity in assay [1] is 70 to 84%; in assay [2], 85 to 100%.
The like results for `CNC(=O)c1ccccc1Nc1cc(Nc2ccc(N3CCN(CCCCCCCCNC(=O)CNc4cccc5c4C(=O)N(C4CCC(=O)NC4=O)C5=O)CC3)cc2OC)ncc1C(F)(F)F` (configuration not stated) were, in that order, 85 to 100% and 85 to 100%.
The like results for `CNC(=O)c1ccccc1Nc1cc(Nc2ccc(N3CCN(CCCCCCNC(=O)COc4cccc5c4C(=O)N(C4CCC(=O)NC4=O)C5=O)CC3)cc2OC)ncc1C(F)(F)F` (configuration not stated) were, in that order, 85 to 100% and 85 to 100%.
In the same order, the values of `CNC(=O)c1ccccc1Nc1cc(Nc2ccc(N3CCN(CCCCCCCCNc4cccc5c4C(=O)N(C4CCC(=O)NC4=O)C5=O)CC3)cc2OC)ncc1C(F)(F)F` (configuration not stated) are 85 to 100% and 85 to 100%.
Regarding `CNC(=O)c1ccccc1Nc1cc(Nc2cc(C)c(C3CCN(CCCCCCNC(=O)COc4cccc5c4C(=O)N(C4CCC(=O)NC4=O)C5=O)CC3)cc2OC(C)C)ncc1C(F)(F)F` (configuration not stated), the Activity in assay [1] and in assay [2] was 85 to 100% each time.
Take `CS(=O)(=O)c1cccc(CNc2nc(Nc3ccc(C(=O)NCCCCCCCCNC(=O)COc4cccc5c4C(=O)N(C4CCC(=O)NC4=O)C5=O)cc3)ncc2C(F)(F)F)c1` (configuration not stated): the figures for the Activity in assay [1] and in assay [2] were 25 to 49% and 85 to 100%, respectively.

The record behind these values is ChEMBL document CHEMBL4619788, “Chemically Induced Degradation of FAK-ALK for Application in Cancer Therapeutics” (ACS Med Chem Lett, 2020).
